# In PMC9668928, “Zandelisib (ME-401) in Japanese patients with relapsed or refractory indolent non-Hodgkin’s lymphoma: an open-label, multicenter, dose-escalation phase 1 study” (International Journal of Hematology, 2022):
# Several values for one entry are separate records, joined by “and”; a condition that tells them apart may be missing. Equal entries are not always repeated. Entries after “also recorded” stand apart in the source; their conditions may differ. Marks after values point to notes of the source that are not given here.
# Experiments:
# [1] = tested on: PI3Kδ; design: method as in PMID 21378270, PMID 21803855, PMID 20959606, PMID 31506873; details: cited from earlier work
# [2] = tested on: basophil activation; design: method as in PMID 30458930; details: 60 mg/day; cited from earlier work
# [3] = tested on: relapsed/refractory indolent non-Hodgkin's lymphoma (R/R iNHL); test: Phase 1 study: anti-tumor efficacy, investigator-assessed, modified Lugano criteria; assay type: in vivo, human
# Experimental: Efficacy endpoints included ORR; duration of response (DOR); progression-free survival (PFS); time to first response (TTR); and change in tumor size from baseline. Response was assessed by investigators based on the modified Lugano Classification lymphoma response criteria (modified Lugano criteria). If complete response (CR) was achieved by CT- or MRI-based assessment (not including bone marrow biopsy), PET/CT was performed to assess metabolic response (except for patients whose FDG-avidity was “non-avid” in the screening test). Additionally, a bone marrow biopsy was also performed if complete metabolic response was confirmed by PET/CT-based assessment. For efficacy outcomes, the Clopper–Pearson method was used to obtain 95% confidence intervals (CIs) for ORR. The Kaplan–Meier method was used to estimate the DOR and PFS for each cohort and overall. Statistical analyses were performed using SAS® software version 9.4 (SAS Institute Inc., Cary, NC, USA).
# [4] = Phase 1 study: plasma pharmacokinetics, non-compartmental analysis; assay type: in vivo, human; details: for pre-dose concentration, mean ± SD: 60 mg daily; for median tmax: after single and multiple doses
# Text: The primary endpoint was the safety [number of patients with treatment-emergent adverse events (TEAEs), based on Common Terminology Criteria for Adverse Events version 5.0] and tolerability (including laboratory values, vital signs, and electrocardiogram performance) of zandelisib in Japanese patients. Hepatobiliary disorder, aspartate/alanine (AST/ALT) increased, diarrhea/colitis, organizing pneumonia, stomatitis, or rash were defined as irAEs in this manuscript. Secondary endpoints included PK (plasma concentrations and PK parameters) and the efficacy of zandelisib. Blood samples for PK evaluation were collected at pre-dose, 1.5, 3, 5, 8, 10, 12 (optional), and 24 h post-dose on Cycle 1 day 1 and Cycle 2 day 1, and at pre-dose on Cycle 1 days 8, 15, and 22. The PK parameters for Cycle 1 day 1 and Cycle 2 day 1 were calculated for each patient by non-compartmental analysis. PK parameters included maximum plasma drug concentration (Cmax), area under the plasma concentration–time curve (AUC) from time zero to the last measurable point (AUC0–t), the AUC from time zero to infinity (AUC0-inf), and terminal half-life (t1/2).
# [5] = tested on: patients with B-cell malignancies; details: phase 1b; cited from earlier work
# [6] = tested on: PI3Kδ signaling pathway; design: method as in PMID 21378270, PMID 21803855, PMID 20959606, PMID 31506873; details: read-out: half maximal inhibitory concentration [IC50]; cited from earlier work
# [7] = N = 9, median follow-up 17.5 months
structure (smiles),measurement,setting,value
CN1CCC(c2ccccc2CC(C)(C)Nc2nc(N3CCOCC3)nc(-n3c(C(F)F)nc4ccccc43)n2)CC1 [zandelisib],target binding,[1],> 5 h
same,target inhibition at trough plasma concentrations,[2],≥ 90%
same,median PFS,[3]; 45 mg group,11.1 months
same,Best overall response: Complete response,"[3]; 45 mg, n = 3",0 (0.0) n (%)
same,Best overall response: Partial response,"[3]; 45 mg, n = 3",3 (100.0) n (%)
same,Best overall response: Progressive disease,"[3]; 45 mg, n = 3",0 n (%)
same,Best overall response: Stable disease,"[3]; 45 mg, n = 3",0 n (%)
same,"Objective response rate, % (95% CI)","[3]; 45 mg, n = 3",100.0 (29.2–100.0) %
same,median DOR,[3]; 60 mg group,11.3 months
same,median PFS,[3]; 60 mg group,13.3 months
same,Best overall response: Complete response,"[3]; 60 mg, n = 6",2 (33.3) n (%)
same,Best overall response: Partial response,"[3]; 60 mg, n = 6",4 (66.7) n (%)
same,Best overall response: Progressive disease,"[3]; 60 mg, n = 6",0 n (%)
same,Best overall response: Stable disease,"[3]; 60 mg, n = 6",0 n (%)
same,"Objective response rate, % (95% CI)","[3]; 60 mg, n = 6",100.0 (54.1–100.0) %
same,median duration of response (DOR),[3]; [7],7.9 months and 7.9 (95% CI 2.8–14.7) months
same,median progression-free survival (PFS),[3]; [7],11.1 months and 11.1 (95% CI 4.6–16.7) months
same,median time to response (TTR),[3]; [7],1.9 months and 1.9 (95% CI 1.8–2.1) months
same,complete response (CR) rate,"[3]; N = 9, 2 FL patients receiving 60 mg/day",22.2% and 22%
same,Best overall response: Complete response,"[3]; Total, N = 9",2 (22.2) n (%)
same,Best overall response: Partial response,"[3]; Total, N = 9",7 (77.8) n (%)
same,Best overall response: Progressive disease,"[3]; Total, N = 9",0 n (%)
same,Best overall response: Stable disease,"[3]; Total, N = 9",0 n (%)
same,"Objective response rate, % (95% CI)","[3]; Total, N = 9",100.0 (66.4–100.0) %
same,patients achieved response at week 8,[3]; after 2 administration cycles,8/9
same,decrease from baseline in the sum of perpendicular diameters,"[3]; all patients, N = 9",> 50%
same,best overall response of partial response (PR),"[3]; cohort 1, 45 mg",3/3
same,best overall response of CR,"[3]; cohort 2, 60 mg",2/6
same,best overall response of PR,"[3]; cohort 2, 60 mg",4/6
same,patients regained response after switching back from IDT to CS,[3]; of patients switched back to CS after PD,2/4
same,"AUC0–inf, mean ± SD","[4]; 45 mg, Cycle 1 day 1, n = 2",479 ± 112^c ng h/mL
same,"t1/2, mean ± SD","[4]; 45 mg, Cycle 1 day 1, n = 2",12.5 ± 0.8^c h
same,"AUC0–t (24 h), mean ± SD","[4]; 45 mg, Cycle 1 day 1, n = 3",304 ± 90 ng·h/mL
same,"Cmax, mean ± SD","[4]; 45 mg, Cycle 1 day 1, n = 3",27.5 ± 11.0 ng/mL
same,"tmax, median (min–max)","[4]; 45 mg, Cycle 1 day 1, n = 3",3.00 (2.88–9.53) h
same,"t1/2, mean ± SD","[4]; 45 mg, Cycle 2 day 1, n = 2",32.5 ± 10.3^c h
same,"AUC0–t (24 h), mean ± SD","[4]; 45 mg, Cycle 2 day 1, n = 3",601 ± 171 ng·h/mL
same,"Cmax, mean ± SD","[4]; 45 mg, Cycle 2 day 1, n = 3",46.4 ± 6.2 ng/mL
same,"tmax, median (min–max)","[4]; 45 mg, Cycle 2 day 1, n = 3",3.08 (2.95–7.98) h
same,"pre-dose concentration, mean ± SD",[4]; Cycle 1 Day 8,25.2 ± 8.2 ng/mL
same,"pre-dose concentration, mean ± SD",[4]; Cycle 1 Day 15,26.1 ± 9.6 ng/mL
same,"pre-dose concentration, mean ± SD",[4]; Cycle 1 Day 22,28.2 ± 9.5 ng/mL
same,"pre-dose concentration, mean ± SD",[4]; Cycle 2 Day 1,26.2 ± 13.1 ng/mL
same,"AUC0–inf, mean ± SD","[4]; 60 mg, Cycle 1 day 1, n = 6",731 ± 331 ng·h/mL
same,"AUC0–t (24 h), mean ± SD","[4]; 60 mg, Cycle 1 day 1, n = 6",435 ± 161 ng·h/mL
same,"Cmax, mean ± SD","[4]; 60 mg, Cycle 1 day 1, n = 6",36.6 ± 13.2 ng/mL
same,"t1/2, mean ± SD","[4]; 60 mg, Cycle 1 day 1, n = 6",16.4 ± 3.9 h
same,"tmax, median (min–max)","[4]; 60 mg, Cycle 1 day 1, n = 6",3.94 (3.00–7.83) h
same,"t1/2, mean ± SD","[4]; 60 mg, Cycle 2 day 1, n = 5",23.5 ± 10.9^d h
same,"AUC0–t (24 h), mean ± SD","[4]; 60 mg, Cycle 2 day 1, n = 6",974 ± 339 ng·h/mL
same,"Cmax, mean ± SD","[4]; 60 mg, Cycle 2 day 1, n = 6",62.8 ± 19.4 ng/mL
same,"tmax, median (min–max)","[4]; 60 mg, Cycle 2 day 1, n = 6",4.96 (2.83–8.00) h
same,dose proportionality of exposure (Cmax and AUC),[4]; 45 and 60 mg,generally dose proportional up to 60 mg/day
same,exposures (Cmax and AUC) on Cycle 2 Day 1 versus Cycle 1 Day 1,[4]; 45 and 60 mg,1.5–2 fold
same,median tmax,[4]; 45 mg,3 h
same,median tmax,[4]; 60 mg,~ 4.96 h
same,time to PK steady state,[4]; daily dosing,PK reached steady state by Day 8; also recorded: reached steady state following 7 days of dosing
same,dose-limiting toxicities (DLTs),[5],No dose-limiting toxicities (DLTs) were reported
same,maximum tolerated dose (MTD),[5],not reached
same,objective response rate (ORR),[5],79%
same,recommended phase 2 dose (RP2D),[5],60 mg/day
same,IC50,[6],0.6 nM
